# Measured values taken from US10947202B2, “Sodium ion channel inhibitors and pharmaceutically acceptable salts and polymorphs thereof and uses thereof” (SHANGHAI HAIYAN PHARMACEUTICAL TECHNOLOGY CO., LTD., priority 2017, dated 2021).
# Read-outs that look alike come from different tables or passages of the source.
# Tests used:
# Assay type in all cases: cell-based
# hNav1.7 = hNav1.7 (Homo sapiens, UniProt Q15858); experiment: Manual patch clamp experiment of hNav1.7 channel (CHO-hNav1.7 stable cell line)
# Source text: Patch voltage clamp electrophysiology allows for the direct measurement and quantification of current block of voltage-gated sodium channels (NaV's), and allows the determination of the time and voltage-dependence of block which has been interpreted as differential binding to the resting, open and inactivated states of the sodium channel to reflect the compound's inhibitory or activating effects (Hille, B., Journal of General Physiology (1977), 69: 497-515).
# Representative compounds of the present disclosure were performed using a manual patch clamp experiment and the purpose of this study was to test the effect of compounds on this ion channel current on a stable cell line transfected with a specific ion channel using a manual patch clamp method, the used stable cell lines CHO-hNav1.7 and HEK-hNav1.5 were from Genionics and WuXi Apptec (Shanghai) respectively.
# Manual patch clamp experimental program is as follows:
# (1) Preparation of solutions and compounds: The whole cell patch clamp technique was used to record hNav1.7 and hNav1.5 currents. In the experiment, the composition of extracellular fluid (mM): HEPES: 5, NaCl: 40, KCl: CaCl2:1, MgCl2:1, CdCl2:0.1, TEA-Cl: 20. The pH was adjusted to 7.3 with NaOH and the osmotic pressure was adjusted to 310-320 mOsm with sucrose, filtered and stored at 4° C. The composition of the intracellular fluid (mM): HEPES: 10, NaCl: 10, CsOH: 5, CsF: 140, EGTA: 1. The pH was adjusted to 7.3 with CsOH and the osmotic pressure was adjusted to 280-290 mOsm with sucrose, filtered and stored at −20° C.
# The positive control and the test compound were firstly dissolved in 100% DMSO (Sigma-Aldrich, D2650), configured as stock solution at a concentration (100 nM, 1000 nM).) The above stock solution was serially diluted with DMSO prior to the experiment, the solution was further diluted with extracellular solution to obtain the desired concentration of the test solution.
# (2) Manual Patch Clamp Experiment: The cell suspension was added to a 35 mm petri dish and placed on an inverted microscope stage, the cells were perfused with an extracellular fluid and the flow rate was 1-2 mL/min after cell adherence. The glass microelectrode was pulled in two steps by a microelectrode puller with an inlet water resistance of 2-5 MΩ. A/D-D/A digital-analog conversion was performed by Digidata 1440 (Molecular Devices) and pCLAMP software (version 10.2, Molecular Devices) for stimulation and signal acquisition; the signal was amplified by patch clamp amplifier (Multiclamp 700B, Molecular Devices), filtering is 4 KHz.
# Two different voltage stimulation procedures were used in the hNav1.7 and hNav1.5 manual patch clamp experiments.
# One is the inactivation stimulation program, the clamp potential is set at V1/2 of the corresponding channel, ie about 50% of the channels are inactivated, then the voltage is applied to −120 mV for 50 ms, then depolarized to −10 mV for 20 ms leading to sodium current, and finally back to the clamp potential. This stimulation program can also be called channel state-dependent voltage stimulation program.
# The other is the non-inactivation stimulation program, the clamp potential is maintained at −120 mV, voltage stimulation is given to −10 mV for 20 ms leading to sodium current, and finally back to the clamp potential. That is all channels have not experienced inactivation status, but activate directly from the resting state under the conditions of the stimulation program.
# The time intervals of these two voltage stimulation program were 10 s. The inhibitory effect of the compound was calculated by the change of the current before and after dosing, the IC50 value was fitted by the Hill equation. […] The results are shown in Table 33 and Table 34, respectively.
# Nav1.2 = Nav1.2 (Homo sapiens, UniProt Q99250); experiment: Selectivity for other ion channels: Nav1.2
# [1] = target: T1, hERG potassium ion channel (Homo sapiens, UniProt Q12809); experiment: Effect on the hERG potassium ion channel (CHO hERG cells, manual patch clamp)
# T1 construct: host or cells: CHO (CHO hERG, passage P15)
# Method: 2.1.1 Cells used in this experiment are CHO cell lines (supplied by Sophion Bioscience, Denmark) which are hERG cDNA transfectant and stably express hERG channels, cell progeny is P15. Cells are cultured in medium containing the following ingredients Invitrogen): Ham's F12 medium, 10% (v/v) inactivated fetal bovine serum, […] hygromycin B, […] Geneticin.
# 2.1.2 CHO hERG cells were grown in Petri dishes containing the above medium and cultured in an incubator containing 5% CO2 at 37° C. CHO hERG cells were transferred onto round glass plates in Petri dishes, and grown on the same culture medium and culture conditions as above 24 h to 48 h prior to the electrophysiological experiments, and the density of CHO hERG cells on each round glass plate needs to meet the requirements that the vast majority of cells are independent and individual.
# The following solutions (supplied by Sophion) were used for electrophysiological recording. The reagents used in this test were provided by Sigma.
# In this experiment, whole-cell current recording was performed using a manual patch clamp system (HEKA EPC-10 signal amplification and digital conversion system, purchased from HEKA Electronic, Germany). The round glass slide of which surface CHO hERG cells were grown on was placed in an electrophysiological recording slot under an inverted microscope. Perfused steadily with extracellular fluid in recording slot (approximately 1 ml per minute). A conventional whole-cell patch clamp current recording technique was used in the experiment. Unless otherwise specified, experiments were performed at normal room temperature (about 25° C.). Cell clamping was at −80 mV. […] The hERG potassium current recorded in the above steps could be superfused for test drug after the steady perfusion state of the extracellular fluid in the recording slot had been stabilized until the inhibition of the hERG current by the drug reached a steady state. […]
# The test data were analyzed by the data analysis software provided by HEKA Patchmaster (V2x73.2), Microsoft Excel and Graphpad Prism 5.0.
# Nav1.8 = Nav1.8 (Homo sapiens, UniProt Q9Y5Y9); experiment: Selectivity for other ion channels: Nav1.8
# Chain of hNav1.7 (Q15858 whole entry): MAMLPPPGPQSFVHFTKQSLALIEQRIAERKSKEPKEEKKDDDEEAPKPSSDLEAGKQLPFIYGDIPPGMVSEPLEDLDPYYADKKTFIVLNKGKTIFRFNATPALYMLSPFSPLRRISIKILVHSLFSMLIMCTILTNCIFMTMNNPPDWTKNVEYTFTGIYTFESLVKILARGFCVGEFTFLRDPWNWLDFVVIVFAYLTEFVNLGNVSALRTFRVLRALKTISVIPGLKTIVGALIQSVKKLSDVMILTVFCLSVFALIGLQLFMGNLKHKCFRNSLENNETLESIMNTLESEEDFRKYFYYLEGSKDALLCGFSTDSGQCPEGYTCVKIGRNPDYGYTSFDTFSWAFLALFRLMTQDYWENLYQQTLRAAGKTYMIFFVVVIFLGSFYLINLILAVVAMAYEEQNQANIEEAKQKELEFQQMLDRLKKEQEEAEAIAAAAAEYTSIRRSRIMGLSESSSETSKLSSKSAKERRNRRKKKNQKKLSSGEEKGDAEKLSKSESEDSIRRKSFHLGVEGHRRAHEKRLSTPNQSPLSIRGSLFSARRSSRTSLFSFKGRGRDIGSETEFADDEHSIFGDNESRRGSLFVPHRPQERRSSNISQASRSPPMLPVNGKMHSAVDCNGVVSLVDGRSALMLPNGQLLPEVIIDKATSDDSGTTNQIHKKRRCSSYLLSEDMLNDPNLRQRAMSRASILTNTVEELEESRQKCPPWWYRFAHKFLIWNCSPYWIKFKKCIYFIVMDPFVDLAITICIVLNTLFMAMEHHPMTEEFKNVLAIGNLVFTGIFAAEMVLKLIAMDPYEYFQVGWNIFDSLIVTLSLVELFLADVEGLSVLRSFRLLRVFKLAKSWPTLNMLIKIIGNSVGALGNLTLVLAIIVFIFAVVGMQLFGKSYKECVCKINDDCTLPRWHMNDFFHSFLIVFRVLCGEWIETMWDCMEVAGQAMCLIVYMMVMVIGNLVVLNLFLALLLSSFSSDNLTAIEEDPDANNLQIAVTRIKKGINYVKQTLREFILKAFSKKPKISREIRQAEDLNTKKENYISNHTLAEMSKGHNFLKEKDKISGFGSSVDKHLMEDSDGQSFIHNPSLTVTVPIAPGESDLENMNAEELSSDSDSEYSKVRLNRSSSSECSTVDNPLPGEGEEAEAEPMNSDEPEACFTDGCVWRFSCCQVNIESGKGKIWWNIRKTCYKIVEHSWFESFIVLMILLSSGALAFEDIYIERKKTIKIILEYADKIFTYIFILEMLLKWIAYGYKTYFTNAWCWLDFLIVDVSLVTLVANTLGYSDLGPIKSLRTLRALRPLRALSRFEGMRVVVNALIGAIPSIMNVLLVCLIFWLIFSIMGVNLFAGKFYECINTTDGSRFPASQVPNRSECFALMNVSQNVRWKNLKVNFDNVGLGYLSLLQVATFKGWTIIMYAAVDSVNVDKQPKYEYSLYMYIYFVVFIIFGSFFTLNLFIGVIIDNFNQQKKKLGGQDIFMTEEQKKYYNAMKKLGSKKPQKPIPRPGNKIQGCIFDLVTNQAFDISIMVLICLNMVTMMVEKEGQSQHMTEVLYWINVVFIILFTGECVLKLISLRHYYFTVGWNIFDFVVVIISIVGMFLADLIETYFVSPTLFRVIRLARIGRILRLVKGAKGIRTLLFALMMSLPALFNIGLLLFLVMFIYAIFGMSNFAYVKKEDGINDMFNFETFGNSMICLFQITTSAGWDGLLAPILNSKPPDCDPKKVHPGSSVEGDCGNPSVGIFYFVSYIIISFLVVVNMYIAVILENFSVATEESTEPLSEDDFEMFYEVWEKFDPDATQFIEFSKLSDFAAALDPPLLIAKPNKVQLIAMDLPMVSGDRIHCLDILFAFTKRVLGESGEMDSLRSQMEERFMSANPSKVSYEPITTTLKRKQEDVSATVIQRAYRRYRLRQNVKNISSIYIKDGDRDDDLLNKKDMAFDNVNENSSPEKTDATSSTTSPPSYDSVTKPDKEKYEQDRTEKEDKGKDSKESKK
# T1 sequence (Q12809 whole entry): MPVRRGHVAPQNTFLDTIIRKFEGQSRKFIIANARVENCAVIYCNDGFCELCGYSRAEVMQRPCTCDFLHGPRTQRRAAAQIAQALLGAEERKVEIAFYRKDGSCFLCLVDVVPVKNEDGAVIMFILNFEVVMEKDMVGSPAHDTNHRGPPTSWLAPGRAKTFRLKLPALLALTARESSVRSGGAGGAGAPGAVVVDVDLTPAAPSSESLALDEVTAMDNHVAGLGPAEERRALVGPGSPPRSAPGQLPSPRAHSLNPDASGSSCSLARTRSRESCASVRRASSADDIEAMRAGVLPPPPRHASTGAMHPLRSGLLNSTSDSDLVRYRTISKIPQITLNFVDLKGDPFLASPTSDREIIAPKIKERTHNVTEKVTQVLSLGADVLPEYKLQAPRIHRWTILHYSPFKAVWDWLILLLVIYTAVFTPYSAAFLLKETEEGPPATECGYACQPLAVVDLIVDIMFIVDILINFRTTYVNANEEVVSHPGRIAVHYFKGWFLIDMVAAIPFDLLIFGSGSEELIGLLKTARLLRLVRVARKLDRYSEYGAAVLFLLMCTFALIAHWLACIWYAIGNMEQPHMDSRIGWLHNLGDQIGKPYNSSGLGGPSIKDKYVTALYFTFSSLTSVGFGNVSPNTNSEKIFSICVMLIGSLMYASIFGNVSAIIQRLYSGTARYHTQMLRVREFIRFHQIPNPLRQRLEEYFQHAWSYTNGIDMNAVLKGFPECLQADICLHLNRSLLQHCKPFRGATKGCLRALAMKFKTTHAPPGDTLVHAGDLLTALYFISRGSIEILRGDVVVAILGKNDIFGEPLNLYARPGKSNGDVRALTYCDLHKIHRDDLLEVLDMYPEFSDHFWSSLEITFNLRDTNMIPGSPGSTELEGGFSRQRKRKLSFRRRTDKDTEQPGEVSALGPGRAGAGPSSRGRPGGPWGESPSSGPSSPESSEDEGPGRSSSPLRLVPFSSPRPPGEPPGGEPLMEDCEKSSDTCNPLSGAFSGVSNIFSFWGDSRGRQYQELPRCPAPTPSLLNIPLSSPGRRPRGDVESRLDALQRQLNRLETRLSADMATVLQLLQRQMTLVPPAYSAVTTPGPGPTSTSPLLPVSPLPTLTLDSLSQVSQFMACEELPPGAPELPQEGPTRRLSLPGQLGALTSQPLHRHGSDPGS
# Chain of Nav1.2 (Q99250 whole entry): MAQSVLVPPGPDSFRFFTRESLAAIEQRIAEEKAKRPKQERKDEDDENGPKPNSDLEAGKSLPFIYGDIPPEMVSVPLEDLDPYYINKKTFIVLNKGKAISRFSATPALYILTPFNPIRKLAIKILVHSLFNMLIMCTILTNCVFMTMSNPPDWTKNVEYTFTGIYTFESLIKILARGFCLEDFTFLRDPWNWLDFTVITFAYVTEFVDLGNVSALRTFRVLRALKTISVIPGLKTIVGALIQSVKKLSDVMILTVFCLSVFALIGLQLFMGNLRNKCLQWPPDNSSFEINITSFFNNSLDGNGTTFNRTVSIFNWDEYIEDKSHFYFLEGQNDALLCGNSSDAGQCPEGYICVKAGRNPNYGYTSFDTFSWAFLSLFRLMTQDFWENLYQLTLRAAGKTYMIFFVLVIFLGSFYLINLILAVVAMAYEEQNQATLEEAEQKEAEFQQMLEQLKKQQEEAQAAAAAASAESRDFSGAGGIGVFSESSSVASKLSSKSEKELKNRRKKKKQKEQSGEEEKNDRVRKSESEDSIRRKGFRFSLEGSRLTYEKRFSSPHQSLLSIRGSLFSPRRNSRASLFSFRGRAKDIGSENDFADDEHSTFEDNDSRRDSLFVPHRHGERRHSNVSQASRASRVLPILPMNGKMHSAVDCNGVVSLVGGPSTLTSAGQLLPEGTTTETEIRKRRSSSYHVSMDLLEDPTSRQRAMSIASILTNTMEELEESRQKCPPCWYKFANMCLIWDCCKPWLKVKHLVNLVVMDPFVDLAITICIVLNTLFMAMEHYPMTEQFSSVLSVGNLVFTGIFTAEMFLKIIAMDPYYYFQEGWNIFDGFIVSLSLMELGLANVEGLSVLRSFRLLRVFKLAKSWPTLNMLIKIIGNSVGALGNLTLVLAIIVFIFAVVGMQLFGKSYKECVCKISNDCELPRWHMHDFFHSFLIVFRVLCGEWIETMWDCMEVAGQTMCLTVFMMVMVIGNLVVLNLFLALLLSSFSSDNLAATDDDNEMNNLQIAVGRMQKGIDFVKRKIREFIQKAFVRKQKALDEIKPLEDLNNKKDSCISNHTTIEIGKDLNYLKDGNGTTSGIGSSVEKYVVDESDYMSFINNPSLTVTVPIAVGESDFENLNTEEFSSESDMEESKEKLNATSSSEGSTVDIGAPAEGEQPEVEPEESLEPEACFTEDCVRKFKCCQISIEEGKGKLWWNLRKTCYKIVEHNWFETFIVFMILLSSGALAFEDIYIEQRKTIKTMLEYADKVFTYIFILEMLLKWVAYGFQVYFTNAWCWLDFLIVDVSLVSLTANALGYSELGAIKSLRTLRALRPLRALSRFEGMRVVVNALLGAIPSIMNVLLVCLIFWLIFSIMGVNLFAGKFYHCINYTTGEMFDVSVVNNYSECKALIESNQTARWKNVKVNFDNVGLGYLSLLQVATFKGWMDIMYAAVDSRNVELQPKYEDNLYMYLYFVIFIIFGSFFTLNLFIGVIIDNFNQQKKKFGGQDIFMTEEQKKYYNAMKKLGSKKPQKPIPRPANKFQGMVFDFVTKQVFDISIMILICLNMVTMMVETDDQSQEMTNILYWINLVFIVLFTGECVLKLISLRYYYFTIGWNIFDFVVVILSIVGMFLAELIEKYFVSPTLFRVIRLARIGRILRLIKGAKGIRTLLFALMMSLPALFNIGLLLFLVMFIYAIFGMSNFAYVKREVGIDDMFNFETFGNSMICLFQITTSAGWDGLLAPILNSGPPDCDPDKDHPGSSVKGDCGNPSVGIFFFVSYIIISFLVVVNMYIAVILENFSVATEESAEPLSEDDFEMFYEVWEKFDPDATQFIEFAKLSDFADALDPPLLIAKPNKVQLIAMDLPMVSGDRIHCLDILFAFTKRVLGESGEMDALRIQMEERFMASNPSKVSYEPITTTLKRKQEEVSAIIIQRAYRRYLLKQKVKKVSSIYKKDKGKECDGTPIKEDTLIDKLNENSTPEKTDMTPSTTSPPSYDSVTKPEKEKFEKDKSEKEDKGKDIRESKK
structure (smiles),measurement,setting,value
"Cc1cc(N2CCN(Cc3cc(F)c(C(=O)NS(=O)(=O)C4CC4)cc3Cl)CC2)ccc1Cl [the free base of formula X compound, 5-chloro-4-((4-(4-chloro-3-methylphenyl)piperazin-1-yl)methyl)-N-(cyclopropylsulfonyl)-2-fluorobenzamide]",inhibitory activity against Nav1.7,hNav1.7,higher inhibitory activity
same,inhibition at 0.1 µM,"hNav1.7; read-out: Inhibition of Nav1.7, 100 nM(%)",86.9%
same,inhibition at 1 µM,"hNav1.7; read-out: Inhibition of Nav1.7, 1000 nM(%)",97.7%
same,IC50,Nav1.2,9600 nM
same,inhibitory activity on the hERG potassium ion channel,[1],little inhibitory activity
same,IC50,[1]; read-out: hERG inhibitory concentration IC50,> 10000 nM
same,IC50,[1]; read-out: hERG potassium ion channel (IC50/nM),> 10000 nM
same,IC50,Nav1.8,18900 nM
